Test results reported in ChEMBL document CHEMBL1201862, “PubChem BioAssay data set” (2004).
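Method: 48-hour compound exposure of cells in 96-well plates, five concentrations, linear interpolation of endpoints. GI50: concentration for 50% inhibition of growth.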 Calls of active or inactive are those of the source. Cut-off read from the data, not from the text of the source: active = GI50 up to about 1.1 µM and inactive = higher.

Experiments:
Assay in all cases: NCI tumour cell line growth inhibition, 48 h
SK-OV-3 = system: SK-OV-3
SK-MEL-2 = system: SK-MEL-2
TK-10 = system: TK-10
KM12 = system: KM12
SNB-19 = system: SNB-19
UACC-62 = system: UACC-62
OVCAR-8 = system: OVCAR-8
CAKI-1 = system: CAKI-1
OVCAR-5 = system: OVCAR-5
UACC-257 = system: UACC-257
OVCAR-4 = system: OVCAR-4
SR = system: SR
IGROV-1 = system: IGROV-1
SN12C = system: SN12C
HCT-15 = system: HCT-15
SF-295 = system: SF-295
HT-29 = system: HT-29
SW-620 = system: SW-620
NCI-H226 = system: NCI-H226
RPMI-8226 = system: RPMI-8226

Row | Structure (SMILES) | GI50 (SK-OV-3) | GI50 (SK-MEL-2) | GI50 (TK-10) | GI50 (KM12) | GI50 (SNB-19) | GI50 (UACC-62) | GI50 (OVCAR-8) | GI50 (CAKI-1) | GI50 (OVCAR-5) | GI50 (UACC-257) | GI50 (OVCAR-4) | GI50 (SR) | GI50 (IGROV-1) | GI50 (SN12C) | GI50 (HCT-15) [µM] | GI50 (SF-295) | GI50 (HT-29) | GI50 (SW-620) | GI50 (NCI-H226) | GI50 (RPMI-8226)
1 | COC(=O)c1cc(/C=C/C(=O)Cc2ccccc2)cn1S(=O)(=O)c1ccccc1 | > 100 µM (inactive) | > 100 µM (inactive) | > 100 µM (inactive) | > 100 µM (inactive) | > 100 µM (inactive) | > 100 µM (inactive) | > 100 µM (inactive) | > 100 µM (inactive) | > 100 µM (inactive) | > 100 µM (inactive) | > 100 µM (inactive) | > 100 µM (inactive) | > 100 µM (inactive) | > 100 µM (inactive) | 7.38 | > 100 µM (inactive) | > 100 µM (inactive) | – | – | –
2 | COc1ccc(-c2ccccc2)c(N/N=C2\CCCNC2=O)c1 | 96.2 µM (inactive) | > 100 µM (inactive) | > 100 µM (inactive) | > 100 µM (inactive) | 81.7 µM (inactive) | 49 µM (inactive) | > 100 µM (inactive) | – | > 100 µM (inactive) | > 100 µM (inactive) | – | 3.55 µM (inactive) | > 100 µM (inactive) | > 100 µM (inactive) | > 100 | > 100 µM (inactive) | > 100 µM (inactive) | > 100 µM (inactive) | > 100 µM (inactive) | > 100 µM (inactive)
3 | C[C@@H]1S[C@H](c2c(Cl)cccc2Cl)N2Cc3ccccc3N=C12 | > 100 µM (inactive) | > 100 µM (inactive) | > 100 µM (inactive) | 85.5 µM (inactive) | > 100 µM (inactive) | 97.3 µM (inactive) | – | > 100 µM (inactive) | > 100 µM (inactive) | > 100 µM (inactive) | > 100 µM (inactive) | > 100 µM (inactive) | > 100 µM (inactive) | > 100 µM (inactive) | > 100 | > 100 µM (inactive) | – | > 100 µM (inactive) | – | > 100 µM (inactive)
4 | O=C(NNC(=O)c1ccncc1)c1ccncc1 | > 100 µM (inactive) | > 100 µM (inactive) | > 100 µM (inactive) | > 100 µM (inactive) | > 100 µM (inactive) | > 100 µM (inactive) | > 100 µM (inactive) | > 100 µM (inactive) | > 100 µM (inactive) | > 100 µM (inactive) | > 100 µM (inactive) | > 100 µM (inactive) | > 100 µM (inactive) | > 100 µM (inactive) | > 100 | > 100 µM (inactive) | > 100 µM (inactive) | > 100 µM (inactive) | – | > 100 µM (inactive)
5 | C/C(=N\Nc1nc2ccccc2[nH]1)c1ccc2ccccc2n1 | 8.87 µM (inactive) | 1.67 µM (inactive) | 3.04 µM (inactive) | 2.08 µM (inactive) | 2.75 µM (inactive) | 2.6 µM (inactive) | 3.33 µM (inactive) | 0.339 µM (active) | 2.25 µM (inactive) | 3.55 µM (inactive) | 1.85 µM (inactive) | 0.08 µM (active) | 0.129 µM (active) | 1.52 µM (inactive) | 1.29 | 2.49 µM (inactive) | 0.948 µM (active) | 3.58 µM (inactive) | – | 0.897 µM (active)
6 | O=C(O)C1c2ccccc2C(C(=O)O)c2ccccc21 (configuration not stated) | > 100 µM (inactive) | > 100 µM (inactive) | > 100 µM (inactive) | > 100 µM (inactive) | > 100 µM (inactive) | > 100 µM (inactive) | > 100 µM (inactive) | > 100 µM (inactive) | > 100 µM (inactive) | > 100 µM (inactive) | > 100 µM (inactive) | > 100 µM (inactive) | > 100 µM (inactive) | > 100 µM (inactive) | > 100 | > 100 µM (inactive) | > 100 µM (inactive) | > 100 µM (inactive) | – | > 100 µM (inactive)
7 | O=C(CSCC(=O)N/N=C/c1ccncc1)N/N=C/c1ccncc1 | > 100 µM (inactive) | > 100 µM (inactive) | > 100 µM (inactive) | > 100 µM (inactive) | > 100 µM (inactive) | > 100 µM (inactive) | > 100 µM (inactive) | > 100 µM (inactive) | > 100 µM (inactive) | > 100 µM (inactive) | > 100 µM (inactive) | – | > 100 µM (inactive) | > 100 µM (inactive) | > 100 | > 100 µM (inactive) | > 100 µM (inactive) | > 100 µM (inactive) | > 100 µM (inactive) | > 100 µM (inactive)
8 | Cc1ccc([S+]([O-])c2sccc2C=O)cc1 (configuration not stated) | > 100 µM (inactive) | 43.6 µM (inactive) | > 100 µM (inactive) | 27.7 µM (inactive) | > 100 µM (inactive) | 19.3 µM (inactive) | 23.1 µM (inactive) | > 100 µM (inactive) | 49.2 µM (inactive) | 53.5 µM (inactive) | 29 µM (inactive) | 31.8 µM (inactive) | 22.6 µM (inactive) | 22.9 µM (inactive) | 27.7 | 23.7 µM (inactive) | 19.8 µM (inactive) | 24.2 µM (inactive) | – | 31 µM (inactive)
